In ChEMBL document CHEMBL1275431, “Telavancin penetration into human epithelial lining fluid determined by population pharmacokinetic modeling and Monte Carlo simulation” (Antimicrob Agents Chemother, 2008):

Experiments:
[1] = AUC (0 to infinity) in human epithelial lining fluid at 750 mg administered as single dose; format: ADME, tissue-based; set-up: dose 750 mg, time infinity
[2] = Plasma protein binding in human plasma at 750 mg administered as single dose; format: ADME, organism-based; conditions: read-out: PPB (converted)
[3] = Penetration ratio, ratio of AUC in human epithelial lining fluid to fAUC in human plasma at 750 mg administered as single dose; format: ADME; conditions: in vivo

For `CCCCCCCCCCNCCN[C@@]1(C)C[C@H](O[C@H]2[C@H](Oc3c4cc5cc3Oc3ccc(cc3Cl)[C@@H](O)[C@@H](NC(=O)[C@@H](CC(C)C)NC)C(=O)N[C@@H](CC(N)=O)C(=O)N[C@H]5C(=O)N[C@H]3C(=O)N[C@H](C(=O)N[C@H](C(=O)O)c5cc(O)c(CNCP(=O)(O)O)c(O)c5-c5cc3ccc5O)[C@H](O)c3ccc(c(Cl)c3)O4)O[C@H](CO)[C@@H](O)[C@@H]2O)O[C@@H](C)[C@H]1O` [TELAVANCIN], the AUC(0-inf) [1] was 74800 ng·h/mL, the fraction unbound [2] was 0.1 and the Ratio [3] was 1.01.
